Source: article PMC9503778, “Targeted Isolation of Antibiotic Brominated Alkaloids from the Marine Sponge Pseudoceratina durissima Using Virtual Screening and Molecular Networking” (Marine Drugs, 2022)
Values joined by “and” are separate entries in the source; they are usually repeats but may differ in a detail not shown here. Equal entries are not always repeated.

Experiments:
human red blood cells = experiment: Haemolysis assay (CO-ADD); assay type: cell-based
[1] = tested on: MRSA (G+) strain ATCC 43300; experiment: Antimicrobial growth inhibition (CO-ADD), MRSA; assay type: cell-based, Staphylococcus aureus
Description: (§1) Compounds 1−3 and 5−12 were assayed against a selection of medically important pathogenic microorganisms (MRSA, E. coli, K. pneumoniae, A. baumanii, P. aeruginosa, C. albicans, C. neoformans), Table 4. […] To the best of our knowledge this compound had not been tested against any drug resistant strain of Gram-positive bacterium until this study.
(§2) The antimicrobial activity testing was performed by the Community for Antimicrobial Drug Discovery (CO-ADD). Compounds were assayed against a range of both Gram negative and Gram positive bacteria (see Supplementary Materials S3) including methicillin-resistant Staphylococcus aureus (MRSA) (G+), Escherichia coli (G-), Klebsiella pneumoniae (G-), Acinetobacter baumannii (G-), Pseudomonas aeruginosa (G-) together with two species of fungus (Candida albicans and Cryptococcus neoformans).
(§3) S3. Antimicrobial activity testing methodology
(§4) The compounds submitted to CO-ADD were evaluated in duplicate (n = 2) against seven microorganisms (five bacteria and two fungi) at a concentration of 32 µg/mL in a 384-well, non-binding surface plate (NBS) for each bacterial/fungal strain, keeping the final DMSO concentration to a maximum of 1% DMSO. All bacteria were cultured in cation-adjusted Mueller-Hinton broth (CAMHB) at 37 °C overnight. A sample of each culture was then diluted 40-fold in fresh broth and incubated at 37 °C for 1.5-3 h. The resultant mid-log phase cultures were diluted (CFU/mL measured by OD600), then added to each well of the compound containing plates, giving a cell density of 5x10^5 CFU/mL and a total volume of 50 µL. All the plates were covered and incubated at 37 °C for 18 h without shaking. […] Inhibition of bacterial growth was determined measuring absorbance at 600 nm (OD600) using a Tecan M1000 Pro mon-ochromator plate reader. […]
(§5) 2 h. The absorbance was measured using a Biotek Synergy HTX plate reader. The percentage of growth inhibition was calculated for each well, using negative control (medium only) and positive control (bacteria without inhibitors) on the same plate as the references. The significance of inhibition values was determined by modified Z-scores, calculated using the median and MAD of the samples (no controls) on the same plate. Samples with inhibition value above 80% and Z-score above 2.5 for either replicate (n = 2 on different plates) were classed as actives.
(§6) Colistin and vancomycin were used as positive bacterial inhibitor standards for Gram-negative and Gram-positive bac-teria, respectively. Fluconazole was used as a positive fungal inhibitor standard for C. albicans and C. neoformans. The antibiotics were provided in four concentrations, with two above and two below its MIC value, and plated into the first eight wells of column 23 of the 384-well NBS plates. The quality control (QC) of the assays was determined by the antimicrobial controls and the Z’-factor (using positive and negative controls). Each plate was deemed to fulfil the qual- […]
(§7) full growth inhibition at their highest concentration, and no growth inhibition at their lowest concentration. The seven […]
(§8) test microorganisms were Staphylococcus aureus MRSA (ATCC 43300), Escherichia coli (ATCC 25922), Klebsiella pneu-moniae (ATCC 700603), Acinetobacter baumanii (ATCC19606), Pseudomonas aeruginosa (ATCC 27853), Candida albicans (ATCC 90028) and Cryptococcus neoformans var. grubii (H99; ATCC 208821).
(§9) S4. Anthelmintic activity testing methodology
(§10) Dose-response evaluations were carried out to estimate the half-maximal inhibitory concentrations (IC50 values) for compounds against Haemonchus contortus (Haecon-5 strain) exsheathed third-stage larvae (xL3s). H. contortus were maintained in experimental sheep and procured in accordance with the institutional animal ethics guidelines and the regulations of Australia (permit no. 1714374; University of Melbourne). Immediately prior to use, third-stage larvae (L3s) were exsheathed and sterilised by incubation in 0.15% (v/v) bleach at 38 °C for 20 min, followed by washes in […]

[2] = tested on: E. Coli (G-) strain ATCC 25922; experiment: Antimicrobial growth inhibition (CO-ADD), E. coli; assay type: cell-based, Escherichia coli
Description: as §1, §2, §3, §4, §5, §6, §7, §8, §9, §10

[3] = tested on: K. pneumoniae (G-) strain ATCC 700603; experiment: Antimicrobial growth inhibition (CO-ADD), K. pneumoniae; assay type: cell-based, Klebsiella pneumoniae
Description: as §1, §2, §3, §4, §5, §6, §7, §8, §9, §10

[4] = tested on: P. auruginosa (G-) strain ATCC 27853; experiment: Antimicrobial growth inhibition (CO-ADD), P. aeruginosa; assay type: cell-based, Pseudomonas aeruginosa; settings: Pseudomonas aeruginosa, ATCC27853; ATCC 27853; read-out: MIC P. aeruginosa
Description: as §1, §2, §3, §4, §5, §6, §7, §8, §9, §10

[5] = tested on: C. albicans (yeast) ATCC 90028; experiment: Antimicrobial growth inhibition (CO-ADD), C. albicans; assay type: cell-based, Candida albicans
Description: as §1, §2, §3
The compounds submitted to CO-ADD were evaluated in duplicate (n = 2) against seven microorganisms (five bacteria and two fungi) at a concentration of 32 µg/mL in a 384-well, non-binding surface plate (NBS) for each bacterial/fungal strain, keeping the final DMSO concentration to a maximum of 1% DMSO. All bacteria were cultured in cation-adjusted […]
Fungal strains were cultured for 3 days on Yeast Extract-Peptone Dextrose (YPD) agar at 30 °C. A yeast suspension of 1 x 10^6 to 5 x 10^6 CFU/mL (as determined by OD530) was prepared from five colonies. The suspension was subsequently diluted and added to each well of the compound-containing plates giving a final cell density of fungi suspension of 2.5 x 10^3 CFU/mL and a total volume of 50 µL. All plates were covered and incubated at 35 °C for 24 h without shaking. […]
as §5, §6, §7, §8, §9
Dose-response evaluations were carried out to estimate the half-maximal inhibitory concentrations (IC50 values) for compounds against Haemonchus contortus (Haecon-5 strain) exsheathed third-stage larvae (xL3s). H. contortus were maintained in experimental sheep and procured in accordance with the institutional animal ethics guidelines and the regulations of Australia (permit no. 1714374; University of Melbourne). Immediately prior to use, third-stage larvae (L3s) were exsheathed and sterilised by incubation in 0.15% (v/v) bleach at 38 °C for 20 min, followed by washes in sterile saline at room temperature (22-24 °C). […]

[6] = tested on: C. neoformans var. grubii strain ATCC 208821; experiment: Antimicrobial growth inhibition (CO-ADD), C. neoformans; assay type: cell-based; settings: Cryptococcus neoformans, ATCC208821; var. grubii ATCC 208821; read-out: MIC C. neoformans
[7] = 32 µg/mL, duplicate (n = 2) values

Structure (SMILES): COC1=C(Br)[C@H](O)[C@@]2(C=C1Br)CC(C(=O)NCCCCNC(=O)C1=NO[C@]3(C=C(Br)C(OC)=C(Br)[C@@H]3O)C1)=NO2 [Compound 2, aerothionin]
- Haemolysis (HC10) (human red blood cells): >32 µg/mL
- % inhibition MRSA [1, 7]: −1.5% and 6.1%
- MIC ([1]; Staphylococcus aureus, ATCC 43300, MIC = concentration at which growth inhibited by ≥80%, range 0.25−32 µg/mL, read-out: MIC MRSA): > 32 µg/mL
- % inhibition E. coli [2, 7]: 0.9% and 2.3%
- MIC ([2]; Escherichia coli, ATCC25922, ATCC 25922, MIC = concentration at which growth inhibited by ≥80%, read-out: MIC E. coli): > 32 µg/mL
- % inhibition K. pneumoniae [3, 7]: 10.9%
- inhibition at 32 µg/mL ([3]; Klebsiella pneumoniae, ATCC700603, 32 µg/mL, duplicate (n = 2) values, read-out: % inhibition K. pneumoniae): 10.4%
- MIC ([3]; Klebsiella pneumoniae, ATCC700603, ATCC 700603, read-out: MIC K. pneumoniae): > 32 µg/mL
- MIC [4]: > 32 µg/mL
- % inhibition C. albicans [5, 7]: 0.5% and 4.2%
- MIC ([5]; Candida albicans, ATCC90028, ATCC 90028, read-out: MIC C. albicans): > 32 µg/mL
- MIC [6]: > 32 µg/mL
